Literature values as cited in patent US20040067252A1, “Novel modified release formulation” (priority 2001, published 2004).
Values after ≈ are worked out from the molar mass of the structure shown.

Details: at 25° C.

SMILES: Cn1c(=O)c2[nH]cnc2n(C)c1=O [theophylline]
- water solubility: 8300 µg/mL (≈ 46.1 mM)
